For eleven molecules, IC50 results are on record in patent publication US11767323B2, “Tricyclic pyridone compounds as JAK2 V617F inhibitors” (Incyte Corporation, priority 2020, dated 2023).

Each structure is given as a SMILES string. pIC50: −log10 of the molar value.

In test [1] the target is catalytic domain (JH1, amino acids 826-1132) of human JAK2 (Homo sapiens (Human), UniProt O60674). Description: JAK2 LanthaScreen JH1 Binding Assay. As to conditions: JAK2 JH1 1.5 nM, 50 nM tracer, 2 hours at 25° C.; read-out: JH1 BIND IC50. The protocol: Example A. JAK2 LanthaScreen JH1 Binding Assay
JAK2 JH1 binding assay utilizes catalytic domain (JH1, amino acids 826-1132) of human JAK2 expressed as N-terminal FLAG-tagged, biotinylated protein in a baculovirus expression system (Carna Biosciences, Product #08-445-20N). The assay was conducted in black 384-well polystyrene plates in a final reaction volume of 20 μL. JAK2 JH1 (1.5 nM) was incubated with compounds (100 nL serially diluted in DMSO) in the presence of 50 nM Fluorescent JAK2-JH1 Tracer and 0.5 nM Streptavidin-Tb cryptate (Cisbio Part #610SATLB) in assay buffer (50 mM Tris, pH=7.5, 10 mM MgCl2, 0.01% Brij-35, 0.1% BSA, 1 mM EGTA, 5% Glycerol and 5 mM DTT). Non-specific binding was accessed in the presence of 2 mM ATP. After incubation for 2 hours at 25° C., LanthaScreen signals were read on a PHERAstar FS plate reader (BMG LABTECH). Data was analyzed with IDBS XLfit and GraphPad Prism 5.0 software using a four parameter dose response curve to determine IC50 for each compound.
Background: TR-FRET usually uses a lanthanide donor and a delayed reading to cut background.

Test [2] has as its target pseudo-kinase domain (JH2, amino-acids 536-812) of human Wild Type JAK2 (Homo sapiens (Human), UniProt O60674, F794H/W659A/W777A). Description: JAK2 LanthaScreen JH2-WT Binding Assay. The note with it: JAK2 JH2-WT 0.145 nM, 50 nM tracer, 1 hour at 25° C.; read-out: JH2 BIND WT IC50. The protocol:
Example B. JAK2 LanthaScreen JH2-WT Binding Assay
(§1) JAK2 JH2-WT binding assay utilizes pseudo-kinase domain (JH2, amino-acids 536-812 with 3 surface mutations W659A, W777A, F794H) of human Wild Type JAK2 expressed as C-terminal His-Avi-tagged, biotinylated protein in a baculovirus expression system (BPS Bioscience, Catalog #79463). The assay was conducted in black 384-well polystyrene plates in a final reaction volume of 20 μL. JAK2 JH2-WT (0.145 nM) was incubated with compounds (100 nL serially diluted in DMSO) in the presence of 50 nM Fluorescent JAK2-JH2 Tracer (MedChem Express Catalog #HY-102055) and 0.25 nM Streptavidin-Tb cryptate (Cisbio Part #610SATLB) in assay buffer (50 mM Tris, pH=7.5, 10 mM MgCl2, 0.01% Brij-35, 0.1% BSA, 1 mM EGTA, 5% Glycerol and 5 mM DTT). Non-specific binding was accessed in the presence of 2 mM ATP. After incubation for 1 hour at 25° C., LanthaScreen signals were read on a PHERAstar FS plate reader (BMG LAB TECH). Data was analyzed with IDBS XLfit and GraphPad Prism 5.0 software using a four parameter dose response curve to determine IC50 for each compound.

In test [3] the target is pseudo-kinase domain (JH2, amino-acids 536-812) of human V617F mutant JAK2 (Homo sapiens (Human), UniProt O60674, F794H/V617F/W659A/W777A). Kind of test: JAK2 LanthaScreen JH2-V617F Binding Assay. The note with it: JAK2 JH2-V617F 0.26 nM, 50 nM tracer, 1 hour at 25° C.; read-out: JH2 BIND V617F IC50. The protocol: Example C. JAK2 LanthaScreen JH2-V617F Binding Assay
as §1, with “JH2-V617F” for “JH2-WT”, “V617F mutant” for “Wild Type”, “#79498).” for “#79463).”, “JH2-V617F (0.26” for “JH2-WT (0.145”, “LABTECH).” for “LAB TECH).”

In test [4] the target is catalytic domain (JH1, amino acids 808-1132) of human JAK2 (Homo sapiens (Human), UniProt O60674). Description: JAK2 HTRF Enzyme Activity Assay. It counts as biochemical. The note with it: JAK2 0.015 nM, ATP (30 μM or 1 mM), 60 minutes at 25° C. The protocol: Example D. JAK2 HTRF Enzyme Activity Assay
JAK2 enzyme activity assays utilize catalytic domain (JH1, amino acids 808-1132) of human JAK2 expressed as N-terminal His-tagged protein in a baculovirus expression system (BPS Bioscience, Catalog #40450). The assays was conducted in black 384-well polystyrene plates in a final reaction volume of 20 μL. JAK2 (0.015 nM) was incubated with compounds (100 nL serially diluted in DMSO) in the presence of ATP (30 μM or 1 mM) and 500 nM Biotin-labeled EQEDEPEGDYFEWLE (SEQ ID NO.: 1) peptide (BioSource International, custom synthesis) in assay buffer (50 mM Tris, pH=7.5, 10 mM MgCl2, 0.01% Brij-35, 0.1% BSA, 1 mM EGTA, 5% Glycerol and 5 mM DTT) for 60 minutes at 25° C. The reactions were stopped by the addition of 10 μL of detection buffer (50 mM Tris, pH 7.8, 0.5 mg/mL BSA, 150 mM NaCl), supplemented with EDTA, LANCE Eu-W1024 anti-phosphotyrosine (PY20), (PerkinElmer, Catalog #AD0067) and Streptavidin SureLight APC (PerkinElmer Catalog #CR130-100), for a final concentration of 15 mM, 1.5 nM and 75 nM, respectively. HTRF signals were read after 30 minutes incubation at room temperature on a PHERAstar FS plate reader (BMG LAB TECH). Data was analyzed with IDBS XLfit and GraphPad Prism 5.0 software using a four parameter dose response curve to determine IC50 for each compound.

In general, pIC50 refers to the IC50 on a negative log10 scale, so that one unit is a factor of ten.

Chain of pseudo-kinase domain (JH2, amino-acids 536-812) of human V617F mutant JAK2 (O60674 536-812 V617F/W659A/W777A/F794H): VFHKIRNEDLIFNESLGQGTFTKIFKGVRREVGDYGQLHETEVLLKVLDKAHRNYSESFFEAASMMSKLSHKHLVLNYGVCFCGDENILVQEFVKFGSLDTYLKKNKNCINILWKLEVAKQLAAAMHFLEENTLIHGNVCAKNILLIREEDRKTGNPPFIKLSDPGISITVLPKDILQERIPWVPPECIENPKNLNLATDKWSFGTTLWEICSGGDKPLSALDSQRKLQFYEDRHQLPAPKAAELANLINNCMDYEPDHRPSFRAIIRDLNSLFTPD
Chain of pseudo-kinase domain (JH2, amino-acids 536-812) of human Wild Type JAK2 (O60674 536-812 W659A/W777A/F794H): as the sequence (O60674 536-812 V617F/W659A/W777A/F794H) above, with F82V counted along it
Chain of catalytic domain (JH1, amino acids 808-1132) of human JAK2 (O60674 808-1132): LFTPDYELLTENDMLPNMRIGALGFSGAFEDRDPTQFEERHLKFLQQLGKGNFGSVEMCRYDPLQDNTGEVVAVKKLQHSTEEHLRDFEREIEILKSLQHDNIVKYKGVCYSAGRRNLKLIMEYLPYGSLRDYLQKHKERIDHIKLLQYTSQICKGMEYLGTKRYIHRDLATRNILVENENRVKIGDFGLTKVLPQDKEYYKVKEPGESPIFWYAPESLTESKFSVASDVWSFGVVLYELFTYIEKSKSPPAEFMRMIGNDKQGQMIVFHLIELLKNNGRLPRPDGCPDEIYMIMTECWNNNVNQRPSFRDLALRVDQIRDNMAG
Chain of catalytic domain (JH1, amino acids 826-1132) of human JAK2 (O60674 826-1132): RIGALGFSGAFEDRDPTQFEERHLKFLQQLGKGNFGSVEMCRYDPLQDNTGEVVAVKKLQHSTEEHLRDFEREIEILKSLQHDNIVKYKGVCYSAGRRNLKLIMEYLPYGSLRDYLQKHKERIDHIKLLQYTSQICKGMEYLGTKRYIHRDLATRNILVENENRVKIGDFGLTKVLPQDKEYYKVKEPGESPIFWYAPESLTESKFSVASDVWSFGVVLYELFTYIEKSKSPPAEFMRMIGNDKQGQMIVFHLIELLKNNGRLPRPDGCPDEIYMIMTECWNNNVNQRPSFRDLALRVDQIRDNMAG

Regarding `CS(=O)(=O)C1CCN(Cc2ccc(-c3cc4c(ncc5[nH]c(=O)c(-c6ccc(C(=O)O)cc6)cc54)[nH]3)cc2)CC1` [Example 2, 4-(2-(4-((4-(Methylsulfonyl)piperidin-1-yl)methyl)phenyl)-7-oxo-6,7-dihydro-3H-pyrrolo[3,2-f][1,7]naphthyridin-8-yl)benzoic acid], the pIC50 in test [1] is less than 5.00; in test [2], no less than 7.00; in test [3], no less than 7.00; in test [4] it was less than 5.00.
`CS(=O)(=O)C1CCN(Cc2ccc(-c3cc4c(ncc5[nH]c(=O)c(-c6nnn[nH]6)cc54)[nH]3)cc2)CC1` [Example 5, 2-(4-((4-(Methylsulfonyl)piperidin-1-yl)methyl)phenyl)-8-(1H-tetrazol-5-yl)-3,6-dihydro-7H-pyrrolo[3,2-f][1,7]naphthyridin-7-one]: the negative logarithm of the IC50 (pIC50) in test [1] is less than 5.00; in test [2], 6.00 to 6.30; in test [3], 5.00 to 6.00; in test [4], 5.00 to 6.00.
As for `Cc1c(-c2ccc(C#N)cc2)c(=O)n(C)c2cnc3[nH]c(-c4ccc(CN5CCC(S(C)(=O)=O)CC5)cc4)cc3c12` [Example 13, 4-(6,9-Dimethyl-2-(4-((4-(methylsulfonyl)piperidin-1-yl)methyl)phenyl)-7-oxo-6,7-dihydro-3H-pyrrolo[3,2-f][1,7]naphthyridin-8-yl)benzonitrile], the pIC50 in test [1] is 6.30 to 7.00; in test [2], no less than 7.00; in test [3], no less than 7.00; in test [4], 6.30 to 7.00.
With `Cc1c(-c2ccc(-n3cnnn3)cc2)c(=O)[nH]c2cnc3[nH]c(-c4ccc(CN5CCC(S(C)(=O)=O)CC5)cc4)cc3c12` [Example 7, 8-(4-(1H-Tetrazol-1-yl)phenyl)-9-methyl-2-(4-((4-(methylsulfonyl)piperidin-1-yl)methyl)phenyl)-3,6-dihydro-7H-pyrrolo[3,2-f][1,7]naphthyridin-7-one], the pIC50 in test [1] was 5.00 to 6.00; in test [2], 6.30 to 7.00; in test [3], 5.00 to 6.00; in test [4], 5.00 to 6.00.
For the molecule `COCCN(C)c1ccc(-c2c(-c3cc(C)no3)c(=O)n(C)c3cnc4[nH]c(-c5cnn(C)c5)cc4c23)cc1` [Example 29, 9-(4-((2-Methoxyethyl)(methyl)amino)phenyl)-6-methyl-2-(1-methyl-1H-pyrazol-4-yl)-8-(3-methylisoxazol-5-yl)-3,6-dihydro-7H-pyrrolo[3,2-f][1,7]naphthyridin-7-one], the pIC50 was 6.30 to 7.00 in test [1], no less than 7.00 in test [2], no less than 7.00 in test [3] and 6.30 to 7.00 in test [4].
In the case of `Cn1c(=O)c(-c2ccc(C(=O)O)cc2)cc2c3cc(-c4ccc(CN5CCC(S(C)(=O)=O)CC5)cc4)[nH]c3ncc21` [Example 14, 4-(6-Methyl-2-(4-((4-(methylsulfonyl)piperidin-1-yl)methyl)phenyl)-7-oxo-6,7-dihydro-3H-pyrrolo[3,2-f][1,7]naphthyridin-8-yl)benzoic acid], the pIC50 in test [1] is 6.30 to 7.00; in test [2] it was no less than 7.00; in test [3], no less than 7.00; in test [4] it was 6.30 to 7.00.
In the case of `Cc1ccc(-c2c(C)c3c4cc(-c5ccc(CN6CCC(S(C)(=O)=O)CC6)cc5)[nH]c4ncc3n(C)c2=O)cc1` [Example 9, 6,9-Dimethyl-2-(4-((4-(methylsulfonyl)piperidin-1-yl)methyl)phenyl)-8-(p-tolyl)-3,6-dihydro-7H-pyrrolo[3,2-f][1,7]naphthyridin-7-one], the pIC50 in test [1], in test [2], in test [3] and in test [4] was no less than 7.00 each time.
Turning to `CN(C)C(=O)c1ccc(-c2c(-c3cnn(C)c3)[nH]c3ncc4c(cc(Nc5cccc(-c6nnn[nH]6)c5)c(=O)n4C)c23)cc1` [Example 34, 4-(8-((3-(1H-tetrazol-5-yl)phenyl)amino)-6-methyl-2-(1-methyl-1H-pyrazol-4-yl)-7-oxo-6,7-dihydro-3H-pyrrolo[3,2-f][1,7]naphthyridin-1-yl)-N,N-dimethylbenzamide], the pIC50 is 6.30 to 7.00 in test [1], no less than 7.00 in test [2], no less than 7.00 in test [3] and 6.30 to 7.00 in test [4].
Regarding `Cc1cc(-c2c(-c3ccc(-c4cnn(C)c4CO)cc3)c3c4cc(-c5cnn(C)c5)[nH]c4ncc3n(C)c2=O)on1` [Example 32, 9-(4-(5-(Hydroxymethyl)-1-methyl-1H-pyrazol-4-yl)phenyl)-6-methyl-2-(1-methyl-1H-pyrazol-4-yl)-8-(3-methylisoxazol-5-yl)-3,6-dihydro-7H-pyrrolo[3,2-f][1,7]naphthyridin-7-one], the pIC50 in test [1] was 6.30 to 7.00; in test [2] it was no less than 7.00; in test [3] it was no less than 7.00; in test [4] it was 6.30 to 7.00.
`COC1CCC(c2c(-c3cc(C)no3)c(=O)n(C)c3cnc4[nH]c(-c5cnn(C)c5)cc4c23)CC1` (centres unmarked) [Example 22, 9-(4-Methoxycyclohexyl)-6-methyl-2-(1-methyl-1H-pyrazol-4-yl)-8-(3-methylisoxazol-5-yl)-3,6-dihydro-7H-pyrrolo[3,2-f][1,7]naphthyridin-7-one]: the pIC50 was 6.30 to 7.00 in test [1], no less than 7.00 in test [2], no less than 7.00 in test [3] and 6.30 to 7.00 in test [4].
On to `COc1ccc(-c2c(-c3cnn(C)c3)[nH]c3ncc4c(cc(C(=O)N(C)C)c(=O)n4C)c23)cc1` [Example 42, 1-(4-Methoxyphenyl)-N,N,6-trimethyl-2-(1-methyl-1H-pyrazol-4-yl)-7-oxo-6,7-dihydro-3H-pyrrolo[3,2-f][1,7]naphthyridine-8-carboxamide], for which the pIC50 is 5.00 to 6.00 in test [1], no less than 7.00 in test [2], no less than 7.00 in test [3] and 5.00 to 6.00 in test [4].
